Assay results published in US7528136B2, “Prolinamide derivatives as NK3 antagonists” (Hoffmann-La Roche Inc., priority 2007, dated 2009).

How the values were obtained:
[1] = biological target: T1, recombinant human NK3 receptor (Homo sapiens, UniProt P29371); assay: [3H]SR142801 competition binding assay; settings: [3H]SR142801, membranes from HEK293 cells transiently expressing hNK3; read-out: Data (hNK-3 receptor affinity)
T1 construct: expressed in transfected cells; host or cells: HEK293 cells (transient expression), membranes
T1 sequence (P29371 1-465): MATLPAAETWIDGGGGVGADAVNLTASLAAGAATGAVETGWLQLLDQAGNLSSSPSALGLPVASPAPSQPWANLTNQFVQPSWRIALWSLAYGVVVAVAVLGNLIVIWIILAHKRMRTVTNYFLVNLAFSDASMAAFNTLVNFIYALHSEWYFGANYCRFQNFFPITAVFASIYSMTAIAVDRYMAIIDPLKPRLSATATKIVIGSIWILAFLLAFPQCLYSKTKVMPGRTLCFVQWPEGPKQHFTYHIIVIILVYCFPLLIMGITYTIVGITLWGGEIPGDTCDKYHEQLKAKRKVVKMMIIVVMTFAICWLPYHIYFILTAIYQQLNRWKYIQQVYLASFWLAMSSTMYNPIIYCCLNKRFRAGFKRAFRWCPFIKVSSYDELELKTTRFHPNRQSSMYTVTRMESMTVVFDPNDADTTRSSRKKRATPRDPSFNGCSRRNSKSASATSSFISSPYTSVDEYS
Method: [^3H]SR142801 Competition Binding Assay
hNK3 receptor binding experiment were performed using [^3H]SR142801 (Catalog No. TRK1035, specific activity: 74.0 Ci/mmol, Amersham, GE Healthcare UK limited, Buckinghamshire, UK) and membrane isolated from HEK293 cells transiently expressing recombinant human NK3 receptor. After thawing, the membrane homogenates were centrifuged at 48,000×g for 10 min at 4° C., the pellets were resuspended in the 50 mM Tris-HCl, 4 mM MnCl2, 1 μM phosphoramidon, 0.1% BSA binding buffer at pH 7.4 to a final assay concentration of 5 μg protein/well. For inhibition experiments, membranes were incubated with [^3H]SR142801 at a concentration equal to KD value of radioligand and 10 concentrations of the inhibitory compound (0.0003-10 μM) (in a total reaction volume of 500 μl) for 75 min at room temperature (RT). At the end of the incubation, membranes were filtered onto unitfilter (96-well white microplate with bonded GF/C filter preincubated 1 h in 0.3% PEI+0.3% BSA, Packard BioScience, Meriden, Conn.) with a Filtermate 196 harvester (Packard BioScience) and washed 4 times with ice-cold 50 mM Tris-HCl, pH 7.4 buffer. Nonspecific binding was measured in the presence of 10 μM SB222200 for both radioligands. The radioactivity on the filter was counted (5 min) on a Packard Top-count microplate scintillation counter with quenching correction after addition of 45 μl of microscint 40 (Can berra Packard S. A., Zürich, Switzerland) and shaking for 1 h. Inhibition curves were fitted according to the Hill equation: y=100/(1+(x/IC50)^nH), where nH=slope factor using Excel-fit 4 software (Microsoft). IC50 values were derived from the inhibition curve and the affinity constant (Ki) values were calculated using the Cheng-Prussoff equation Ki=IC50/(1+[L]/KD) where [L] is the concentration of radioligand and KD is its dissociation constant at the receptor, derived from the saturation isotherm. All experiments were performed in duplicate and the mean±standard error (SEM) of the individual Ki values was calculated.

schizophrenia = settings: phase II trial, cited from earlier work

Question: With `N#Cc1ccccc1N1CCN(C(=O)[C@@H]2C[C@H](NCc3ccc(F)cc3F)CN2Cc2ccccc2)CC1` [Example 1, 2-{4-[(2S,4S)-1-Benzyl-4-(2,4-difluoro-benzylamino)-pyrrolidine-2-carbonyl]-piperazin-1-yl}-benzonitrile] as the molecule, how does the Ki [1] read?
Answer: The Ki was 0.0122 µM.

Question: For `O=C([C@@H]1C[C@H](NCc2ccc(F)cc2F)CN1Cc1ccccc1)N1CCN(c2cccc(C(F)(F)F)c2)CC1` [Example 5, [(2S,4S)-1-Benzyl-4-(2,4-difluoro-benzylamino)-pyrrolidin-2-yl]-[4-(3-trifluoromethyl-phenyl)-piperazin-1-yl]-methanone], which Ki [1] is on record?
Answer: The Ki was 0.0376 µM.

Question: For `O=C([C@@H]1C[C@H](NCc2ccc(F)cc2F)CN1Cc1ccccc1)N1CCN(c2ccccc2)CC1` [Example 7, [(2S,4S)-1-Benzyl-4-(2,4-difluoro-benzylamino)-pyrrolidin-2-yl]-(4-phenyl-piperazin-1-yl)-methanone], which Ki [1] is on record?
Answer: Its Ki is 0.063 µM.

Question: With `O=C([C@@H]1C[C@H](NCc2ccc(F)cc2F)CN1Cc1ccccc1)N1CCN(c2ccc(F)cc2)CC1` [Example 8, [(2S,4S)-1-Benzyl-4-(2,4-difluoro-benzylamino)-pyrrolidin-2-yl]-[4-(4-fluoro-phenyl)-piperazin-1-yl]-methanone] as the molecule, how does the Ki [1] read?
Answer: Its Ki is 0.0648 µM.

Question: With `O=C([C@@H]1C[C@H](NCc2ccc(F)cc2F)CN1Cc1ccccc1)N1CCN(c2ccccc2Cl)CC1` [Example 10, [(2S,4S)-1-Benzyl-4-(2,4-difluoro-benzylamino)-pyrrolidin-2-yl]-[4-(2-chloro-phenyl)-piperazin-1-yl]-methanone] as the molecule, how does the Ki [1] read?
Answer: Its Ki is 0.0567 µM.

Question: Which Ki [1] does the source give for `COc1ccccc1N1CCN(C(=O)[C@@H]2C[C@H](NCc3ccc(F)cc3F)CN2Cc2ccccc2)CC1` [Example 12, [(2S,4S)-1-Benzyl-4-(2,4-difluoro-benzylamino)-pyrrolidin-2-yl]-[4-(2-methoxy-phenyl)-piperazin-1-yl]-methanone] here?
Answer: The Ki was 0.0235 µM.

Question: With `COc1cc2c(cc1OC)CN(C(=O)[C@@H]1C[C@H](NCc3ccc(F)cc3F)CN1Cc1ccccc1)CC2` [Example 13, [(2S,4S)-1-Benzyl-4-(2,4-difluoro-benzylamino)-pyrrolidin-2-yl]-(6,7-dimethoxy-3,4-dihydro-1H-isoquinolin-2-yl)-methanone] as the molecule, how does the Ki [1] read?
Answer: Its Ki is 0.0394 µM.

Question: Which Ki [1] does the source give for `CN(Cc1cc(C(F)(F)F)cc(C(F)(F)F)c1)[C@H]1C[C@@H](C(=O)N2CCN(c3ccccc3C#N)CC2)N(Cc2ccccc2)C1` [Example 32, 2-(4-{(2S,4S)-1-Benzyl-4-[(3,5-bis-trifluoromethyl-benzyl)-methyl-amino]-pyrrolidine-2-carbonyl}-piperazin-1-yl)-benzonitrile] here?
Answer: Its Ki is 0.0644 µM.

Question: With `COc1cc(CN[C@H]2C[C@@H](C(=O)N3CCN(c4ccccc4C#N)CC3)N(Cc3ccccc3)C2)cc(OC)c1` [Example 34, 2-{4-[(2S,4S)-1-Benzyl-4-(3,5-dimethoxy-benzylamino)-pyrrolidine-2-carbonyl]-piperazin-1-yl}-benzonitrile] as the molecule, how does the Ki [1] read?
Answer: Its Ki is 0.044 µM.

Question: For `N#Cc1ccccc1N1CCN(C(=O)[C@@H]2C[C@H](NCc3ccccc3C(F)(F)F)CN2Cc2ccccc2)CC1` [Example 36, 2-{4-[(2S,4S)-1-Benzyl-4-(2-trifluoromethyl-benzylamino)-pyrrolidine-2-carbonyl]-piperazin-1-yl}-benzonitrile], which Ki [1] is on record?
Answer: Its Ki is 0.0948 µM.

Question: Which Ki [1] does the source give for `N#Cc1ccccc1N1CCN(C(=O)[C@@H]2C[C@H](NCc3cc(C(F)(F)F)ccc3Cl)CN2Cc2ccccc2)CC1` [Example 38, 2-{4-[(2S,4S)-1-Benzyl-4-(2-chloro-5-trifluoromethyl-benzylamino)-pyrrolidine-2-carbonyl]-piperazin-1-yl}-benzonitrile] here?
Answer: The Ki was 0.058 µM.

Question: For `N#Cc1ccccc1N1CCN(C(=O)[C@@H]2C[C@H](NCc3cccc(Cl)c3)CN2Cc2ccccc2)CC1` [Example 40, 2-{4-[(2S,4S)-1-Benzyl-4-(3-chloro-benzylamino)-pyrrolidine-2-carbonyl]-piperazin-1-yl}-benzonitrile], which Ki [1] is on record?
Answer: The Ki was 0.071 µM.

Question: Which Ki [1] does the source give for `N#Cc1ccccc1N1CCN(C(=O)[C@@H]2C[C@H](NCc3ccc(F)c(Cl)c3)CN2Cc2ccccc2)CC1` [Example 45, 2-{4-[(2S,4S)-1-Benzyl-4-(3-chloro-4-fluoro-benzylamino)-pyrrolidine-2-carbonyl]-piperazin-1-yl}-benzonitrile] here?
Answer: The Ki was 0.0279 µM.

Question: Which Ki [1] does the source give for `N#Cc1ccccc1N1CCN(C(=O)[C@@H]2C[C@H](NCc3ccc(Cl)c(Cl)c3)CN2Cc2ccccc2)CC1` [Example 48, 2-{4-[(2S,4S)-1-Benzyl-4-(3,4-dichloro-benzylamino)-pyrrolidine-2-carbonyl]-piperazin-1-yl}-benzonitrile] here?
Answer: Its Ki is 0.029 µM.

Question: For `N#Cc1ccccc1N1CCN(C(=O)[C@@H]2C[C@H](NCc3cccc(Cl)c3F)CN2Cc2ccccc2)CC1` [Example 49, 2-{4-[(2S,4S)-1-Benzyl-4-(3-chloro-2-fluoro-benzylamino)-pyrrolidine-2-carbonyl]-piperazin-1-yl}-benzonitrile], which Ki [1] is on record?
Answer: The Ki was 0.048 µM.

Question: For `N#Cc1ccccc1N1CCN(C(=O)C2CC(NCc3ccc(F)cc3F)CN2Cc2cccc(F)c2)CC1` (stereo not shown) [Example 54, 2-{4-[4-(2,4-Difluoro-benzylamino)-1-(3-fluoro-benzyl)-pyrrolidine-2-carbonyl]-piperazin-lyl}-benzonitrile], which Ki [1] is on record?
Answer: Its Ki is 0.047 µM.

Question: With `CN(Cc1cc(C(F)(F)F)cc(C(F)(F)F)c1)[C@H]1C[C@@H](C(=O)N2CCN(c3cccc(C(F)(F)F)c3)CC2)N(Cc2ccccc2)C1` [Example 62, {(2S,4S)-1-Benzyl-4-[(3,5-bis-trifluoromethyl-benzyl)-methyl-amino]-pyrrolidin-2-yl}-[4-(3-trifluoromethyl-phenyl)-piperazin-1-yl]-methanone] as the molecule, how does the Ki [1] read?
Answer: Its Ki is 0.039 µM.

Question: Which Ki [1] does the source give for `CN(Cc1cc(C(F)(F)F)cc(C(F)(F)F)c1)[C@H]1C[C@@H](C(=O)N2CCN(c3cccc(C(F)(F)F)c3)CC2)N(Cc2cccc(Cl)c2)C1` [Example 68, [(2S,4S)-4-[(3,5-Bis-trifluoromethyl-benzyl)-methyl-amino]-1-(3-chloro-benzyl)-pyrrolidin-2-yl]-[4-(3-trifluoromethyl-phenyl)-piperazin-1-yl]-methanone] here?
Answer: Its Ki is 0.0412 µM.

Question: Which Ki [1] does the source give for `O=C([C@@H]1C[C@@H](NCc2ccc(F)cc2F)CN1Cc1ccccc1)N1CCN(c2cccc(C(F)(F)F)c2)CC1` [Example 87, [(2S,4R)-1-Benzyl-4-(2,4-difluoro-benzylamino)-pyrrolidin-2-yl]-[4-(3-trifluoromethyl-phenyl)-piperazin-1-yl]-methanone] here?
Answer: Its Ki is 0.052 µM.

Question: With `N#Cc1ccccc1N1CCN(C(=O)[C@@H]2C[C@@H](NCc3ccc(F)cc3F)CN2Cc2ccccc2)CC1` [Example 88, 2-{4-[(2S,4R)-1-Benzyl-4-(2,4-difluoro-benzylamino)-pyrrolidine-2-carbonyl]-piperazin-1-yl}-benzonitrile] as the molecule, how does the Ki [1] read?
Answer: Its Ki is 0.097 µM.

Question: Which “activity on positive symptoms of schizophrenia” value (schizophrenia; altered behavior, delusion, hallucinations, extreme emotions, excited motor activity, incoherent speech) does the source give for `CC(=O)N(C)C1(c2ccccc2)CCN(CCC[C@]2(c3ccc(Cl)c(Cl)c3)CCCN(C(=O)c3ccccc3)C2)CC1` [SR 142,801, Osanetant] here?
Answer: Its value is “active”.

Question: What about the “activity in the treatment of negative symptoms” value (schizophrenia; depression, anhedonia, social isolation, memory and attention deficits) of the same molecule?
Answer: The value was “inactive”.
